Active and inactive are the calls of the source.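 How the source made its calls: active means signal drops with AC50 under 10 µM, fitted no higher than twice the top valid tested dose; inactive means effect in the opposite direction, plus the rest.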
System: NIH3T3 viability, CellTiter-Glo ATP luminescence, 48 h
Assay: toxicity toward NIH3T3 fibroblasts – cell-based, plate reader, dry powder, cytotoxicity control, dose response (AID 743405)
Conditions: not given

Q: Which AC50 does the source give for `COc1ccc(OCc2cccc(C(=O)O)c2)cc1` here?
A: The AC50 was > 70 µM (inactive).

Q: Which AC50 does the source give for `Cc1ccc(-c2cn3cc(C)ccc3n2)cc1` here?
A: Its AC50 is > 70 µM (inactive).

Q: For `Cc1c(C)c2ccc(OCC(=O)Nc3ccccn3)c(C)c2oc1=O`, which AC50 is on record?
A: The AC50 was 36.4 µM.

Q: Which AC50 does the source give for `COc1c(CC=C(C)C)cc(C2CC(=O)c3c(O)cc(O)cc3O2)cc1CC=C(C)C` (stereo not drawn) here?
A: Its AC50 is 32.9 µM.

Q: Which AC50 does the source give for `Cc1cccc(CSc2cccc3cccnc23)c1` here?
A: The AC50 was > 70 µM (inactive).

System: not listed separately
Assay: as above
Conditions: NIH3T3 viability, CellTiter-Glo ATP luminescence, 48 h; at 35 µM (top of the series)

Q: With `Cc1cc(C(=O)COC(=O)c2ccccc2O)c(C)n1Cc1cccs1` as the molecule, how does the activity change, negative = cytotoxicity read?
A: The activity change, negative = cytotoxicity was -7.18% (inactive).

Q: With `CCSc1nnc(NC(=O)c2nc(S(=O)(=O)Cc3ccc(F)cc3)ncc2Cl)s1` as the molecule, how does the activity change, negative = cytotoxicity read?
A: The activity change, negative = cytotoxicity was 45.4% (inactive).

Q: With `Cc1ccc(C(=O)Nc2cnc3ccccc3c2)cc1` as the molecule, how does the activity change, negative = cytotoxicity read?
A: The activity change, negative = cytotoxicity was -0.872% (inactive).

Q: Which activity change, negative = cytotoxicity does the source give for `Cc1ccc(CNC(=O)CSc2c3c(nc4ccc(Cl)cc24)CCCC3)o1` here?
A: The activity change, negative = cytotoxicity was 11.2% (inactive).

Q: Which activity change, negative = cytotoxicity does the source give for `O=C1S/C(=C\c2ccc(N3CCOCC3)o2)C(=O)N1Cc1c(F)cccc1Cl` here?
A: The activity change, negative = cytotoxicity was 92.2% (inactive).

Q: For `Cc1cc(S(=O)(=O)NCc2ccncc2)c(C)cc1Br`, which activity change, negative = cytotoxicity is on record?
A: Its activity change, negative = cytotoxicity is -1.39% (inactive).

Q: Which activity change, negative = cytotoxicity does the source give for `COc1ccc(-n2ncc3c(N4CCCCC4)ncnc32)cc1` here?
A: Its activity change, negative = cytotoxicity is -2.9% (inactive).

Q: Which activity change, negative = cytotoxicity does the source give for `O=C(O)c1cccc(COc2ccccc2Cl)c1` here?
A: Its activity change, negative = cytotoxicity is -3.99% (inactive).

Q: With `O=C(NCCc1ccccc1)c1ccc2c(c1)OCCCO2` as the molecule, how does the activity change, negative = cytotoxicity read?
A: The activity change, negative = cytotoxicity was 4.4% (inactive).

Q: With `COc1ccc(CNC(=O)C(c2ccc(C)cc2)N(Cc2cccs2)C(=O)c2ccc3c(c2)OCCO3)cc1` (stereo not drawn) as the molecule, how does the activity change, negative = cytotoxicity read?
A: Its activity change, negative = cytotoxicity is -4.92% (inactive).

Q: With `O=C(CN1C(=O)c2ccccc2S1(=O)=O)c1ccc(Cl)cc1Cl` as the molecule, how does the activity change, negative = cytotoxicity read?
A: Its activity change, negative = cytotoxicity is 5.03% (inactive).

Q: For `CCOC(=O)Cn1c(S(=O)(=O)Cc2ccccc2Cl)nc(-c2ccccc2)c1-c1ccccc1`, which activity change, negative = cytotoxicity is on record?
A: Its activity change, negative = cytotoxicity is 3.41% (inactive).

Q: With `COc1ccc(CNC(=O)C(C)n2ccc3cc(S(=O)(=O)N4CCCCCC4)ccc32)cc1` (stereo not drawn) as the molecule, how does the activity change, negative = cytotoxicity read?
A: The activity change, negative = cytotoxicity was -0.861% (inactive).

Q: Which activity change, negative = cytotoxicity does the source give for `O=C(NCCc1ccccc1)c1ccc2c(c1)OCCO2` here?
A: Its activity change, negative = cytotoxicity is 5.21% (inactive).

Q: Which activity change, negative = cytotoxicity does the source give for `CCN(CC)Cc1c(O)ccc2c1O/C(=C\C=C\c1ccccc1)C2=O` here?
A: Its activity change, negative = cytotoxicity is 9.2% (inactive).

Q: With `O=C(c1n[nH]c(=O)c2ccccc12)N1CCN(C2c3ccccc3-c3ccccc32)CC1` as the molecule, how does the activity change, negative = cytotoxicity read?
A: The activity change, negative = cytotoxicity was 8.43% (inactive).

Q: Which activity change, negative = cytotoxicity does the source give for `O=C(CN1C(=O)c2ccccc2S1(=O)=O)c1ccc2c(c1)OCCCO2` here?
A: Its activity change, negative = cytotoxicity is 8.65% (inactive).

Q: With `Cc1nc(SCC(=O)Nc2nc3ccccc3s2)c(C#N)c(C)c1C` as the molecule, how does the activity change, negative = cytotoxicity read?
A: Its activity change, negative = cytotoxicity is -9.06% (inactive).
